This is an account of results in patent US20240140983A1, “SINGLE STRANDED DNA ENZYME INHIBITORS” (MASSEY UNIVERSITY, priority 2021, published 2024).

A word on the Ki: it is the dissociation constant of the complex between target and ligand, obtained from inhibition or displacement. The low end stands for higher affinity, the high end for lower affinity. What is called Kd is the free concentration of one partner at which half of the binding sites on the other are occupied at equilibrium, for simple one-to-one binding. A low value points to a tighter complex. One may read the Km as the substrate concentration at which the rate is half of its maximum. As a reminder, the Vmax is the rate approached at saturating substrate. As a reminder, the kcat is the maximal rate divided by the concentration of active sites.

The target of experiment [1] is T1, wild-type APOBEC3A (Homo sapiens, UniProt P31941).
T1 construct: His7 (C); made in house
T1 sequence (P31941 whole entry): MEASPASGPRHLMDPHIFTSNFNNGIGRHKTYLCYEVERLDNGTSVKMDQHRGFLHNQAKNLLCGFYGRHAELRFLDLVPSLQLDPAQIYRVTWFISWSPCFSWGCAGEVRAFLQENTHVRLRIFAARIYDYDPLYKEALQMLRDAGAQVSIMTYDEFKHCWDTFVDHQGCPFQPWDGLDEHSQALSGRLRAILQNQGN
Kind of experiment: NMR assay: wild-type APOBEC3A-catalysed deamination of dC-hairpin-3, Lambert's W function. The experiment is classed as biochemical. To be noted: pH 7.4, 140 nM enzyme, 500 μM dC-hairpin-3. The procedure: Inhibitors were tested in the NMR assay monitoring APOBEC3A-catalysed deamination of dC-hairpin-3. Deamination data was analysed using Lambert's W function as described in Example 5.

The target in experiment [2] is A3A-E72A (Homo sapiens, UniProt P31941, E72A). Kind of experiment: Isothermal titration calorimetry (ITC), binding to A3A-E72A. The settings on record: 25° C. The procedure:
(§1) The inventors used isothermal titration calorimetry (ITC) to determine binding of the cross-linked oligos to A3 enzymes, specifically to A3A-E72A, where the active-site glutamic acid is replaced with alanine, and to the catalytically competent A3BCTD-QM-ΔL3-AL1swap and compared this binding to that of linear oligos.
Desalted unmodified DNA oligonucleotides were purchased (Integrated DNA Technologies) at 1 or 5 μmol synthesis scale and dissolved in one of the buffers described below to give 10 mM solutions. ITC experiments were conducted at 25° C. using a MicroCal ITC200 (now Malvern Instruments) isothermal titration calorimeter. […] The ratio of protein to oligonucleotide concentration is usually 1:10. Titrations are made up of 30 individual additions. To prevent protein precipitation during the long time-scale of the experiment it was necessary to used improved ITC buffers. ITC buffer 1: 50 mM MES, pH 6.0, 100 mM NaCl, 200 μM EDTA, 1 mM β-mercaptoethanol and ITC buffer 2: 50 mM Na^+/K^+ phosphate, pH 6.0, 50 mM NaCl, 50 mM choline acetate, 2.5 mM TCEP, 200 μM EDTA with 30 mg/mL BSA. After preparation, ITC buffer 2 was frozen and defrosted before the experiments. ITC buffer 2* is freshly prepared buffer 2.
In contrast, A3A-E72 Å was used, particularly for oligos containing dC so that the complications of deamination can be avoided, although this mutation, notwithstanding no change to active-site structure, does cause a small but significant diminution in ligand binding^1 through loss of hydrogen bonding to the ligand. The inventors expect that the binding of inactivated A3BCTD-QM-ΔL3-AL1swap to the substrate will be close to or even worse than Km of 200 μM, which places substrate binding outside ITC applicability. One should emphasise that the composition of buffers used for NMR kinetic and ITC binding experiments are different, mainly because proteins in ITC experiments need to be at much higher concentration than for kinetic assays (10-100 μM for ITC versus 20-300 nM in kinetic experiments).

Experiment [3] has as its system A3BCTD-QM-ΔL3-AL1swap. Kind of experiment: Real-time NMR assay: deamination of DNA substrates by A3BCTD-QM-ΔL3-AL1swap. The format is biochemical, human. The procedure: FIG. 5 is a set of graphs showing the initial rate of A3BCTD-QM-ΔL3-AL1swap catalyzed deamination of terminally (A), internally (B-D) cross-linked oligos and a dC-hairpin in comparison with the linear substrate. Substrate concentrations are 100 μM in (A and B), 800 μM in (C) and 400 μM in (D). Enzyme concentrations are 50 nM in (A and B) and 300 nM in (C) and 100 nM in (D). Buffers are 50 mM citrate-phosphate (pH 5.5 for A-C) and 50 mM Na-phosphate (pH 6.0 for D), 200 mM NaCl, 2 mM β-mercaptoethanol, 200 μM 4,4-dimethyl-4-silapentane-1-sulfonic acid (DSS) and 10% D2O at 25° C. Error bars are estimated standard deviations from triplicate measurements.
Real-time NMR assays are advantageous because they are direct, utilizing only A3 enzymes and oligos in a suitable buffer system, in contrast to many fluorescence-based assays where a secondary enzyme and a fluorescently modified oligo are used. The NMR-based assay described herein allows a Michaelis-Menten kinetic model to be used to characterize both A3 substrates and inhibitors based on direct determination of the initial velocity of deamination of various ssDNA substrates (including modified substrates) in the presence of A3 enzymes.
The A3 enzyme used in the experiments detailed herein is the well-characterized and very active A3BCTD-QM-ΔL3-AL1swap,^1 where loop 3 is deleted and loop 1 is replaced with the corresponding loop 1 from A3A in addition to four point mutations remote to the enzyme's active site. […] Recent work by the inventors on the related enzyme, A3G, has shown that inhibition of the C-terminal catalytic domain is mirrored by the inhibition of the full-length enzyme, validating their approach of using catalytic C-terminal domains for inhibitor development.^2
Using the 9-mer oligonucleotide ATTTCATTT (5′-AT3dCAT3) (SEQ ID NO: 1) as the standard substrate, the inventors compared the deamination of both terminally and internally cross-linked oligos prepared as above using a previously described real-time NMR assay.^1, 45 For the terminally cross-linked oligos, decreased rates of deamination were observed from 9-mer to 5-mer. The number of phosphates of the modified 9-mer sequence is the same as for the 9-mer DNA control (FIG. 5A). […] The next internal cross-link 2 was designed based on modified nucleotides dU^E and dA^N3. […] However, a marked 2.3 times increase in deamination rate was detected for oligo dC[C^N3(−2),H^E1(+1)]X having internal cross-link 3 connecting −2 and +1 positions in the DNA sequence (FIG. 5D). It is surprising that synthetic oligo dC[C^N3(−2),H^E1(+1)]X was deaminated even faster than a native DNA hairpin.
(§2) For determination of inhibition constants (KI) of inhibitors the inventors first evaluated kinetic parameters of A3BCTD-QM-ΔL3-AL1swap on two DNA substrates (Table 5), which were used to detect the residual deamination rate in the presence of inhibitors (Table 6). Fitting the experimental data by non-linear least squares using a global fit provided similar values of kinetic parameters to those obtained by the linearized Lineweaver-Burk plot (Table 5). Then, the inhibition constants for strongest cross-linked inhibitors were calculated by several methods assuming a competitive mode of inhibition^1 (Table 6) based on experiments in which the concentration of the individual inhibitor was varied, and the residual deamination initial rate was measured.

Experiment [4] has as its target A3BCTD-QM-ΔL3-AL1swap. Kind of experiment: Isothermal titration calorimetry (ITC), binding to A3BCTD-QM-ΔL3-AL1swap. Also on record: species or system human. The settings on record: ITC buffer 3 (Na+/K+ phosphate, pH 6.0, 200 mM trimethylamine N-oxide), 25° C.
Description: as §1
For oligos containing dZ, catalytically active A3BCTD-QM-ΔL3-AL1swap was used, as it has the active-site glutamic acid required for protonation of N3 in dZ, which activates C4 in dZ to accept nucleophilic OH^−/H2O coordinated to the Zn^2+, which converts dZ into a transition-state or an intermediate analogue of cytidine deamination.^8
For A3BCTD-QM-ΔL3-AL1swap we used ITC buffer 3: 50 mM Na^+/K^+ phosphate, pH 6.0, 200 mM trimethylamine N-oxide dihydrate, 2.5 mM TCEP, 200 μM EDTA. Data evaluation was performed with the software provided by the supplier of MicroCal ITC200.

The target of experiment [5] is A3BCTD-QM-ΔL3-AL1swap. Put plainly: NMR assay: inhibition of A3BCTD-QM-ΔL3-AL1swap-catalyzed deamination of a linear substrate (initial rates). The experiment is classed as biochemical, human. The settings on record: for Ki / Vmax: 5′-AT3dCAT3 substrate, 50 nM enzyme; for inhibition effect: Km of 5′-AT3dCAT3 (150 μM) compared with apparent Ki: non-linear regression analysis. The procedure: FIG. 6. is a set of graphs showing inhibition of A3BCTD-QM-ΔL3-AL1swap-catalyzed deamination of 5′-T4CAT by dZ/FdZ-containing linear and cross-linked oligos. Initial rate of deamination was measured under the following experimental conditions: 400 μM of 5′-T4CAT, 8 μM (A, B) or 4 μM (C) of dZ/FdZ-containing oligos, 300 nM (A, B) or 200 nM (C) of A3BCTD-QM-ΔL3-AL1swap in a 50 mM sodium phosphate buffer (pH 6.0) containing 100 mM NaCl, 2.5 mM β-mercaptoethanol, 0.1 M EDTA, 50 μM 3-(trimethylsilyl)-2,2,3,3-tetradeuteropropionic acid (TSP) at 25° C. Error bars are estimated standard deviations from triplicate measurements.
FIG. 13 is a graph showing the inhibition of A3BCTD-QM-ΔL3-AL1swap-catalyzed deamination of 5′-T4CAT by linear oligos containing dZ, 34R, 34S and 46. Initial rate of deamination was measured under the following experimental conditions: 400 μM of 5′-T4CAT, at oligo concentration as indicated, 300 nM of A3BCTD-QM-ΔL3-AL1swap in a 50 mM sodium phosphate buffer (pH 6.0) containing 100 mM NaCl, 2.5 mM β-mercaptoethanol, 0.1 M EDTA, 50 μM 3-(trimethylsilyl)-2,2,3,3-tetradeuteropropionic acid (TSP) and 20% D2O at 25° C. Error bars are estimated standard deviations from triplicate measurements.
The inhibition potential of cross-linked oligos was investigated by changing dC to dZ or FdZ in these constructs. The NMR assay described in Example 4 was used to compare the internally cross-linked dZ/FdZ-containing oligos with a linear DNA inhibitor containing dZ/FdZ (dZ-linear is 5′-AT3dZAT3, FdZ-linear is 5′-AT3FdZAT3) that were characterized earlier.^1-2 Residual activity of A3BCTD-QM-ΔL3-AL1swap on the unmodified oligo (5′-T4dCAT) as a substrate in the presence of a known concentration of dZ/FdZ-containing inhibitors (linear and cross-linked) was measured using NMR assay.
as §2
Residual activity of A3BCTD-QM-ΔL3-AL1swap on the unmodified oligo (5′-T4CAT) as a substrate in the presence of a known concentration of inhibitors was measured using the NMR assay as described in Example 5.

In experiment [6] the target is human CDA (Homo sapiens, UniProt P32320). Put plainly: UV-Vis based deamination assay against human CDA. The format is biochemical. The settings on record: 27 nM human CDA; for Ki: 2 mM dC, absorbance at 286 nm, Lambert's W function. The procedure:
FIG. 12 is a graph showing the initial rate of human CDA-catalysed deamination of 2′-deoxycytidine (dC) in the absence (no inhibitor) and presence of dZ, 34R and 34S. Conditions: 100 μM dC as a substrate, using different concentrations of inhibitors, 27 nM human CDA in 20 mM Na-phosphate buffer, pH 6.0 supplemented with 100 mM NaCl at 25° C. Absorbance was measured at 286 nm at the start of deamination. Samples labelled as “preincubated” refer to experiments when the enzyme was preincubated for 5 min with inhibitors and then 100 μM dC was added.
The seven-membered ring-containing nucleosides synthesized were tested for their inhibition potential against human CDA enzyme by a UV-Vis based deamination assay. All data were obtained by monitoring absorbance of 2′-deoxycytidine at 286 nm and 25° C., where the deamination of cytosine leads to a decrease in absorption. For nucleosides 34R and 34S, the condition of the assay used was 27 nM human CDA and 100 μM dC as a substrate in 20 mM Na-phosphate buffer, 100 mM NaCl at pH 6.0; an average of 8 measurements was done for each nucleoside. As the original 7-membered ring nucleosides were reported as slow-binding inhibitors of CDA,^10 preincubation conditions of an inhibitor with CDA were also tested for the assay and labelled as ‘preincubation’. Here, the nucleosides were preincubated with the enzyme for 5 min and then 100 μM dC substrate was added to start the measurements (FIG. 12).

Setting [7] is: Linear analysis (Lineweaver-Burk plot).
The mark [8] stands for this setting: Lineweaver-Burk plot for the substrate/Dixon plot for the inhibitor.
[9] abbreviates: Non-linear regression analysis for both substrate and inhibitor.

A3A-E72A, sequence (P31941 whole entry E72A): as the sequence (P31941 whole entry) above, with E72A counted along it
human CDA, sequence (P32320 whole entry): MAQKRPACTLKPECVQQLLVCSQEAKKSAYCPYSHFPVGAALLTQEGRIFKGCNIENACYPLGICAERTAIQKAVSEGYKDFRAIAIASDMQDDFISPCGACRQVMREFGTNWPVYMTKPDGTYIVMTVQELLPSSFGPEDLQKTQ

For 5'-TGCGCTT-46-GCGCT [46-hairpin-3], the affinity in experiment [1], expressed as Ki, was 290 ± 40 nM.
As to ATTTCATTT [5′-AT3dCAT3], the Kd came out at 200 ± 60 nM in experiment [2] (ITC buffer 1 (50 mM MES, pH 6.0)); 120 ± 30 nM in experiment [2] (ITC buffer 2 (Na+/K+ phosphate, pH 6.0, BSA; frozen and defrosted)); 130 ± 30 nM in experiment [2] (ITC buffer 2* (freshly prepared buffer 2)). In addition, the Km came out at 200 ± 30 µM in experiment [3] (setting [7]) and 150 µM in experiment [3] (Non-linear regression analysis). The Vmax stood at 0.014 ± 0.002 µM/s in experiment [3] (setting [7]) and 0.0126 ± 0.0008 µM/s in experiment [3] (Non-linear regression analysis). Also, the kcat in experiment [3] (setting [7]) was found to be 0.29 ± 0.04 s⁻¹; in experiment [3] (Non-linear regression analysis), 0.26 ± 0.02 s⁻¹.
Consider 5′-AT3dZAT3 [dZ-linear], for which, in experiment [4], the Kd is 11400 ± 2300 nM. In addition, the affinity in experiment [5] (setting [8]), expressed as Ki, was 7500 ± 1700 nM. Besides, in experiment [5] (setting [9]), the affinity corresponds to a Ki of 7000 ± 1300 nM and the maximal velocity (Vmax) was 0.0126 ± 0.0008 µM/s. The “inhibition effect: Km of 5′-AT3dCAT3 (150 μM) compared with apparent Ki” value in experiment [5] turned out to be 20 fold.
On to `O=C1CC[C@H](O)CCN1[C@H]1C[C@H](O)[C@@H](CO)O1` [compound 34S, 1-[2-deoxy-β-D-erythro-pentofuranosyl]-(S)-5-hydroxyazepan-2-one], for which the “inhibitory potential against human CDA” value in experiment [6] (100 μM dC, pH 6.0, 25° C, with and without 5 min preincubation (FIG. 12)) was “some inhibitory potential”.
Regarding `O=c1ncccn1[C@H]1C[C@H](O)[C@@H](CO)O1` [dZ, 2′-deoxyzebularine], the inhibitory constant (Ki) in experiment [6] came out at 10700 ± 500 nM.
Same read-out and setting: in the case of `O=C1NCC=CCN1[C@H]1C[C@H](O)[C@@H](CO)O1` [compound 46, 1-[2-deoxy-β-D-erythro-pentofuranosyl]-1,3,4,7-tetrahydro-2H-1,3-diazepin-2-one] it was 430 ± 80 nM.
In the case of 5′-AT3FdZAT3 [FdZ-linear], the “inhibition of deamination of 5′-T4CAT (in words)” value in experiment [5] (400 μM 5′-T4CAT, 8 or 4 μM oligo, 300 or 200 nM enzyme, pH 6.0 (FIG. 6)) was “more powerful inhibitor of A3BCTD-QM-ΔL3-AL1swap than dZ-linear oligo”. The Ki in experiment [5] (setting [8]) came out at 2100 ± 800 nM; in experiment [5] (setting [9]), 4400 ± 700 nM; in experiment [1], 2400 ± 940 nM. Further, the Vmax in experiment [5] (setting [9]) turned out to be 0.0126 ± 0.0008 µM/s. For the same compound, the “inhibition effect: Km of 5′-AT3dCAT3 (150 μM) compared with apparent Ki” value in experiment [5] amounted to 35 fold.
